Experimental data: patent US20220323454A1, “PHENOTHIAZINES AND THEIR DERIVATIVES FOR USE AS A MEDICAMENT” (Guangzhou Virotech Pharmaceutical Co., Ltd., priority 2019, published 2022)

Legend:
[1] = test system: Jurkat-PD-1-NFAT-LUC cells; assay: IL-2 secretion by Jurkat-PD-1-NFAT-LUC cells co-cultured with Raji-PD-L1 cells (ELISA); type: cell-based, human; details: Raji-PD-L1 : Jurkat-PD-1-NFAT-LUC 1:1, CD3/CD28 antibody coated plate, 6 hours; 1 μM MTC or 10 μg/mL PD1 antibody; FIG. 1D
Protocol: (§1) (1) Jurkat cells were used to construct a stable cell line expressing PD-1. The pCAGin-PD-1 plasmid was electroporated into Jurkat cells, which were then screened with 900 μg/mL G418 antibiotic and flow-sorted for single clones. Jurkat-PD-1 cells were then electroporated into a DNA fragment that controls the luciferase gene through the NFAT-binding site (referred to as NFAT-LUC). A single clone was then flow-sorted and named clone 5. Using this cell, the expression level of IL-2 can be measured by the activity of luciferase. Raji cells stably expressing PD-L1 were constructed, and the pCDNA-PD-L1 plasmid was electroporated into the Raji cells, followed by screening with 2 μg/mL puromycin, and then flow-sorted single clones and named clone 1.
(3) A 96-well plate was coated with 10 μg/mL CD3 antibody/10 μg/mL CD28 antibody overnight at 4° C. and excess antibody was washed off with PBS. Raji cells or Raji-PD-L1 cells were co-cultured with Jurkat-PD-1-NFAT-LUC cells at a ratio of 1:1, or to a mixture of Raji-PD-L1 cells and Jurkat-PD-1-NFAT-LUC cells at a ratio of 1:1 was added 1 μM MTC or 10 μg/mL PD1 antibody for co-culture; after 6 hours of co-culture, the secretion of IL-2 in the supernatant was measured by ELISA.

[2] = test system: EL4-OVA-mPDL1 cells; assay: EL4-OVA-mPDL1 subcutaneous transplanted tumor in Rag1−/− mice given CTL cells; type: in vivo, mouse; details: CTL cells by tail vein, MTC 40 mg/kg/day intragastric, PD-1 antibody 10 mg/kg/2 days intraperitoneal, vs CTL cell-only group, FIGS. 5B, C, D
Protocol: (1) Lymphoma cells overexpressing chicken ovalbumin OVA and mouse PD-L1, namely EL4-OVA-mPDL1 cells, were resuspended in BD Matrigel, in which, for one side of one mouse, 2×10^6 cells were resuspended in 100 μl BD Matrigel.
(2) The mixture of cells and Matrigel was inoculated into the left and right flanks of Rag1−/− mice subcutaneously, each at a dosage of 100 μl.
(3) When the tumor was fixed about 5 days after inoculation, activated OT-1 T cells (i.e., 2×10^6 CTL cells/mouse) were injected through the tail vein, and the mice were divided into 3 groups, namely the CTL cell group, the CTL cell +10 mg/kg/2 days PD-1 antibody group, and the CTL cell +40 mg/kg/day MTC group.
(4) The length and width of the transplanted tumor of each group of mice were measured from the day of tail vein injection of CTL cells, and every other day, and the tumor volume was calculated as length×width^2/2 (FIG. 5A).

[3] = test system: B16-OVA cells; assay: CTL killing of IFN-γ-treated B16-OVA melanoma cells (microscope); type: cell-based, mouse
Protocol: (3) Melanoma cells B16-OVA (B16 cells expressing OVA gene) were treated with 10 μg/mL IFN-γ for 24 hours, and then mixed with CTL cells at a ratio of 1:5 and co-cultured for 4 hours. Cells were treated with 1 μM MTC. B16-OVA cells treated with DMSO or MTC only (without IFN-γ treatment) were used as control. The apoptosis of B16-OVA was observed by microscope, and then the killing ability of CTL cells to target cells was assessed.
(§2) (4) The B16-OVA group received no treatment, and the medium was replaced with water in the Water group. The other groups were treated with 10 μg/mL IFNγ. After 24 hours, except for the B16-OVA group, each group was co-cultured with CTL cells at a ratio of 1:5 for 4 hours, and treated with MTC […], LMT (1 μM) or anti-PD1 (PD-1 antibody, 10 μg/mL, Nivolumab, BMS). The death of B16-OVA in each group was observed by microscope, and then the killing ability of CTL cells to target cells was assessed. […] The IFN-γ+MTC group and the IFN-γ+LMT group were treated with 10 μg/mL IFN-γ for 24 hours. The cells were then mixed with CTL cells at a ratio of 1:5, co-cultured for 4 hours and treated with MTC (1 μM) or LMT (1 μM). The MTC and LMT groups were treated with MTC (10 μM) or LMT (10 μM) only. The killing ability against target cells was observed.

[4] = test system: Jurkat-PD-1-NFAT-LUC cells; assay: NFAT-luciferase activity in Jurkat-PD-1-NFAT-LUC cells co-cultured with Raji-PD-L1 cells; type: cell-based, human; details: 4.86 μM MTC or LMT added with Raji-PD-L1 cells, 6 h co-culture; FIG. 1E
Protocol: as §1
(4) A 96-well plate was coated with 10 μg/mL CD3 antibody/10 μg/mL CD28 antibody overnight at 4° C., and excess antibody then washed off with PBS. Raji cells or Raji-PD-L1 cells were co-cultured with Jurkat-PD-1-NFAT-LUC cells at a ratio of 1:1, or to a mixture of Raji-PD-L1 cells and Jurkat-PD-1-NFAT-LUC cells at a ratio of 1:1 was added 4.86 μM MTC or LMT. Luciferase substrate was added after 6h co-culture and the luciferase activity was measured by a microplate reader.

[5] = test system: B16-WT cells; assay: Killing of B16-WT melanoma cells, with or without CTL cells; type: cell-based, mouse; details: FIG. 4E
Protocol: as §2

Compound	secretion of IL-2 in the supernatant [1]	tumor growth (tumor volume and tumor weight) [2]	killing effects of CTL cells to B16-OVA cells ([3]; B16-OVA treated with 10 μg/mL IFNγ 24 hours, B16-OVA : CTL 1:5, 4 hours, MTC (1 µM), LMT (1 μM), FIGS. 4C and 4D)	combined killing effect with CTL cells on B16-OVA compared with the anti-PD-1 group ([3]; MTC (1 µM) or LMT (1 μM) vs anti-PD1 10 μg/mL, FIG. 4D)	luciferase activity [4]	killing effect on B16-WT cells, combination with CTL cells ([5]; IFN-γ 10 μg/mL 24 hours, B16-WT : CTL 1:5, 4 hours, MTC (1 μM) or LMT (1 μM))	killing effect on B16-WT cells, compound only ([5]; MTC (10 μM) or LMT (10 μM) only)
PD-1 antibody: anti-PD-1 antibody (Nivolumab, Bristol-Myers Squibb) used as comparator	sharply enhanced	inhibited					
CN(C)c1ccc2c(c1)Sc1cc(N(C)C)ccc1N2 [LMT, N3,N3,N7,N7-tetramethyl-10H-phenothiazine-3,7-diammonium dimesylate]			significantly enhanced	significantly stronger than that of the anti-PD-1 group	increased dramatically	no killing effect	no killing effect
